Data reported in PMC5598241 (Toxicology Reports, 2015).

Legend:
[1] = test system: P450 enzymes CYP1A2, CYP2C9, CYP2C19, CYP2D6 and CYP3A4; conditions: furanocoumarin dimers versus monomer; cited from earlier work
humans = conditions: stated without reference; cited from earlier work
Sprague Dawley (SD) rats [2] = assay: Liver function tests after single oral PAR overdose with or without GFJ or BGT; type: in vivo, rat; conditions: for Liver function tests ALP / Liver function tests ALT / Liver function tests AST: PAR 1725 mg/kg oral alone, mean ± SD, n = 5
Sprague Dawley (SD) rats [3] = assay: Full blood count after drug administration; type: in vivo, rat; conditions: for Full blood count Hb / Full blood count Hct / Full blood count MCH / Full blood count MCHC / Full blood count MCV / Full blood count Plt / Full blood count RCC / Full blood count WCC: PAR 1725 mg/kg oral alone, mean ± SD, n = 3; for thrombocytopenia (low platelet count): all test animals given PAR, GFJ and BGT = groups co-treated with PAR
[4] = PAR plasma concentration by HPLC; type: in vivo; conditions: Sprague Dawley, rat, oral, 1725 mg/kg
SD rats = assay: Preliminary determination of the toxic dose of PAR; type: in vivo, rat; conditions: preliminary experiment
[5] = 48 h after dosing, listed as PAR only
[6] = 48 h after dosing, listed as PAR-only
[7] = PAR 1725 mg/kg single dose, 72 h, 3 rats
[8] = PAR 1822 mg/kg single dose, 72 h, 3 rats

Molecule: paradisine A
- enzyme inhibitor potency relative to 6-7-dihydroxybergamottin (DHB) [1]: over 20 times
- enzyme inhibitor potency relative to BGT (GF-I-2) [1]: over 100 times

Molecule: CC(=O)Nc1ccc(O)cc1 [PAR, paracetamol]
- hepatotoxic dose of PAR in humans (humans): 100 mg/kg
- Liver function tests ALP (Sprague Dawley (SD) rats [2]; 24 h after dosing): 319 ± 2.1 units/l
- Liver function tests ALT (Sprague Dawley (SD) rats [2]; 24 h after dosing): 63 ± 41.3 units/l
- Liver function tests AST (Sprague Dawley (SD) rats [2]; 24 h after dosing): 156 ± 76.2 units/l
- Liver function tests ALP (Sprague Dawley (SD) rats [2]; 48 h after dosing): 296 ± 148.5 units/l
- Liver function tests ALT (Sprague Dawley (SD) rats [2]; [5]): 837 ± 268 units/l
- Liver function tests AST (Sprague Dawley (SD) rats [2]; [5]): 1359 ± 405 units/l
- Liver function tests ALT (Sprague Dawley (SD) rats [2]; [6]): 837 ± 268.0 units/l
- Liver function tests AST (Sprague Dawley (SD) rats [2]; [6]): 1359 ± 404.5 units/l
- Liver function tests ALP (Sprague Dawley (SD) rats [2]; 72 h after dosing): 267 ± 38.9 units/l
- Liver function tests ALT (Sprague Dawley (SD) rats [2]; 72 h after dosing): 419 ± 690.1 units/l
- Liver function tests AST (Sprague Dawley (SD) rats [2]; 72 h after dosing): 512 ± 657.9 units/l
- Full blood count Hb (Sprague Dawley (SD) rats [3]; 24 h): 15.2 ± 0
- Full blood count Hct (Sprague Dawley (SD) rats [3]; 24 h): 0.439 ± 0
- Full blood count MCH (Sprague Dawley (SD) rats [3]; 24 h): 19.9 ± 0
- Full blood count MCHC (Sprague Dawley (SD) rats [3]; 24 h): 34.5 ± 0
- Full blood count MCV (Sprague Dawley (SD) rats [3]; 24 h): 57.6 ± 1
- Full blood count Plt (Sprague Dawley (SD) rats [3]; 24 h): 1159 ± 81
- Full blood count RCC (Sprague Dawley (SD) rats [3]; 24 h): 7.6 ± 0
- Full blood count WCC (Sprague Dawley (SD) rats [3]; 24 h): 4.1 ± 1
- Full blood count Hb (Sprague Dawley (SD) rats [3]; 48 h): 15.3 ± 1
- Full blood count Hct (Sprague Dawley (SD) rats [3]; 48 h): 0.464 ± 0
- Full blood count MCH (Sprague Dawley (SD) rats [3]; 48 h): 20.4 ± 0
- Full blood count MCHC (Sprague Dawley (SD) rats [3]; 48 h): 33.1 ± 0
- Full blood count MCV (Sprague Dawley (SD) rats [3]; 48 h): 61.1 ± 1
- Full blood count Plt (Sprague Dawley (SD) rats [3]; 48 h): 310 ± 305
- Full blood count RCC (Sprague Dawley (SD) rats [3]; 48 h): 7.5 ± 0
- Full blood count WCC (Sprague Dawley (SD) rats [3]; 48 h): 5.9 ± 0
- Full blood count Hb (Sprague Dawley (SD) rats [3]; 72 h): 13.6 ± 2
- Full blood count Hct (Sprague Dawley (SD) rats [3]; 72 h): 0.406 ± 0
- Full blood count MCH (Sprague Dawley (SD) rats [3]; 72 h): 19.8 ± 1
- Full blood count MCHC (Sprague Dawley (SD) rats [3]; 72 h): 33.7 ± 1
- Full blood count MCV (Sprague Dawley (SD) rats [3]; 72 h): 58.9 ± 4
- Full blood count Plt (Sprague Dawley (SD) rats [3]; 72 h): 326 ± 293
- Full blood count RCC (Sprague Dawley (SD) rats [3]; 72 h): 6.8 ± 1
- Full blood count WCC (Sprague Dawley (SD) rats [3]; 72 h): 4.7 ± 1
- thrombocytopenia (low platelet count) (Sprague Dawley (SD) rats [3]): thrombocytopenia
- concentration at 24 h [4]: 5720 ng/mL
- concentration at 48 h [4]: 4450 ng/mL
- concentration at 72 h [4]: 2020 ng/mL
- change in liver enzymes (SD rats; PAR 1000 mg dose, 24, 48 and 72 h): no change
- ALP (SD rats; [7]): 260.0 ± 36
- AST (SD rats; [7]): 512.0 ± 593
- ALP (SD rats; [8]): 223.7 ± 82
- ALT (SD rats; [8]): 44.3 ± 3
- AST (SD rats; [8]): 104.0 ± 14

Molecule: CC(C)=CCC/C(C)=C/COc1c2ccoc2cc2oc(=O)ccc12 [BGT, bergamottin]
- PAR-induced hepatotoxicity after PAR overdose (Sprague Dawley (SD) rats [2]; co-administered orally with PAR 1725 mg/kg in rats): prevented
- thrombocytopenia (low platelet count) (Sprague Dawley (SD) rats [3]): moderate

Molecule: paradisine B
- enzyme inhibitor potency relative to 6-7-dihydroxybergamottin (DHB) [1]: over 20 times
- enzyme inhibitor potency relative to BGT (GF-I-2) [1]: over 100 times
